Experimental data taken from ChEMBL document CHEMBL1138763 (J Med Chem, 2004).

Tests used:
[1] = target: Prostaglandin G/H synthase 1 (Homo sapiens, UniProt P23219); assay: In vitro inhibitory concentration against Prostaglandin G/H synthase 1 in human whole blood assay; format: tissue-based
[2] = target: T1, Prostaglandin G/H synthase 2 (Homo sapiens, UniProt P35354); format: tissue-based, Blood
T1 sequence (P35354 whole entry): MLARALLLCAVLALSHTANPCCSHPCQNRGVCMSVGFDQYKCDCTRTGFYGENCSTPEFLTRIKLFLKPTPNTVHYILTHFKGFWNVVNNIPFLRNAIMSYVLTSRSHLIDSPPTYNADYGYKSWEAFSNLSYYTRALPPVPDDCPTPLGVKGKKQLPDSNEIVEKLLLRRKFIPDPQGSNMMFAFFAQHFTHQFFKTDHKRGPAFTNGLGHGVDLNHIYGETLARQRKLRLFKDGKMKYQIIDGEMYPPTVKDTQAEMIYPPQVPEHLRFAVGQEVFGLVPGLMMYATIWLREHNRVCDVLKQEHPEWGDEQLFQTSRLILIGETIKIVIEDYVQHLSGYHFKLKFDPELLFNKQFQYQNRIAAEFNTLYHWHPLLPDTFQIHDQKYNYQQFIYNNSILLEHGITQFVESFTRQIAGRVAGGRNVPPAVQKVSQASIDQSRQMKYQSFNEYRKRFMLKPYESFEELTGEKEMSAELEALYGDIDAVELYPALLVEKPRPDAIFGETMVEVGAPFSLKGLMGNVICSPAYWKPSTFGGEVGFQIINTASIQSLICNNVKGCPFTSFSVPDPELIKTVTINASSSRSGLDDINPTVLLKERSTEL
Description: In vitro inhibitory concentration against Prostaglandin G/H synthase 2 in human whole blood assay

Prostaglandin G/H synthase 1, sequence (P23219 whole entry): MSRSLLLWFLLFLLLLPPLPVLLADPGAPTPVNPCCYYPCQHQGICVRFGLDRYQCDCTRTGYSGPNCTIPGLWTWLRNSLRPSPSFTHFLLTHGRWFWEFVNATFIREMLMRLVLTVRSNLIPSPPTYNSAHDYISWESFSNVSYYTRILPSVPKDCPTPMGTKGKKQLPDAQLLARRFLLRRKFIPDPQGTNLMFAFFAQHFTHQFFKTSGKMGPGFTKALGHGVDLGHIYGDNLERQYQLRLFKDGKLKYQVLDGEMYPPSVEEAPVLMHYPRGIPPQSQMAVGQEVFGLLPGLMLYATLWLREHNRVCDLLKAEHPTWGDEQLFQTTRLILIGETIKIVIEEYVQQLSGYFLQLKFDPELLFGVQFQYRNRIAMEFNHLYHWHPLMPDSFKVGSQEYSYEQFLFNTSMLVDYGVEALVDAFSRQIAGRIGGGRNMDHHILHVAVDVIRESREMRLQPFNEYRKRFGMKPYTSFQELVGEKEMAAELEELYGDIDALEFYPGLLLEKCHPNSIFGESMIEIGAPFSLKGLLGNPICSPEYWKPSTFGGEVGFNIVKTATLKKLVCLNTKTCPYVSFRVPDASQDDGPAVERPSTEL

SMILES	IC50 [1]	IC50 [2]
COc1cc(OC)c(-c2noc(C)c2-c2ccccc2)c(OC)c1Cl	> 100 µM	> 100 µM
Cc1onc(-c2ccc(Cl)o2)c1-c1ccc(S(N)(=O)=O)cc1	> 100 µM	> 100 µM
COc1cc(OC)c(-c2noc(C)c2-c2ccccc2)c(OC)c1	> 100 µM	> 100 µM
Cc1cc(C)c(S(N)(=O)=O)c(C)c1-c1noc(C)c1-c1ccccc1	> 100 µM	> 100 µM
Cc1cc(C)c(-c2noc(C)c2-c2ccccc2)c(C)c1	> 100 µM	> 100 µM
Cc1onc(-c2ccc(Cl)o2)c1-c1ccccc1	–	> 100 µM
Cc1cc(C)c(S(N)(=O)=O)c(C)c1-c1noc(C)c1-c1ccc(S(N)(=O)=O)cc1	> 100 µM	> 100 µM
COc1cc(OC)c(-c2noc(C)c2-c2ccc(S(N)(=O)=O)cc2)c(OC)c1Cl	> 100 µM	> 100 µM
